In patent US7423015B1, “Antihelminthic drugs as a treatment for hyperproliferative diseases” (Board of Regents, The University of Texas System, priority 2001, dated 2008) one finds colony formation and apoptosis under monotherapy data, which are given here for two compounds.

Assay [1] concerns A549 metastatic lung colonies. The experiment in a line: Lung metastases in vivo after tail vein injection. Set-up: species or system female nude mice. To be noted: paclitaxel alone, other experiments. How it is done:
To establish lung metastases, female nude mice were injected intravenously via tail vein with 10^6 A549 tumor cells suspended in […] of sterile PBS. Six days later, mice were divided into two groups of 5 mice each and treated. Group 1 received no treatment and group 2 received the experimental MZ drug orally at 1 mg of drug (100 μl) twice a week for 3 weeks. After 3 weeks, animals were euthanized by CO2 inhalation. Lungs from each of the mice from the two groups were injected intra-tracheally with India ink and fixed in Feketes solution. The therapeutic effect of MZ treatment was determined by counting the number of metastatic tumors in each lung under a dissecting microscope without knowledge of the treatment groups. The experiments were performed three times and data analyzed and interpreted as statistically significant if the p value was <0.05 by the Mann-Whitney rank-sum test.
Next, the inventors asked whether treatment with MZ would inhibit the growth of human metastatic lung cancer cells in vivo. About 300 metastatic colonies appeared on untreated mice 21 days after A549 cell injection into the tail vein (FIG. 6). This technique was reproducible as the totals blindly counted by two investigators differed by less than 10%. This experiment was performed three times with similar results. The oral administration of […] MZ reduced mean colony count to 80% of the mean value for controls (P<0.0001).

For assay [2], the system named is H460 NSCLC cells. The experiment in a line: Cell cycle profiles by FACS, MZ and vinorelbine. In kind it is cell-based, human. Particulars: sub-therapeutic low dose. Here is the method: FIG. 10. MZ Enhances activity of anti-mictotic drugs in H460 NSCLC cells. H460 cells were treated with low dose of MZ or Vinorelbine. Cell cycle profiles indicating G1/S G2-Mphases were analyzed by FACS.
The doses of MZ and vinorelbine were chosen to be “sub-therapeutic”. […] Thus, in H460 NSCLC cells mebendazole enhances the activity of anti-mitotic drugs.

On to `CC(=O)O[C@H]1C(=O)[C@@]2(C)[C@H]([C@H](OC(=O)c3ccccc3)[C@]3(O)C[C@H](OC(=O)[C@H](O)[C@@H](NC(=O)c4ccccc4)c4ccccc4)C(C)=C1C3(C)C)[C@]1(OC(C)=O)CO[C@@H]1C[C@@H]2O` [paclitaxel], for which, in assay [1], the colony formation result is listed as “no significant reduction”.

For `CCC1=C[C@@H]2CN(C1)Cc1c([nH]c3ccccc13)[C@@](C(=O)OC)(c1cc3c(cc1OC)N(C)[C@H]1[C@@](O)(C(=O)OC)[C@H](OC(C)=O)[C@]4(CC)C=CCN5CC[C@]31[C@@H]54)C2` [Vinorelbine], the apoptosis under monotherapy entry in assay [2] is given as “No apoptosis”.
